Test results published in patent publication US20240158446A1, “CYCLIC COMPOUND HAVING SELECTIVE INHIBITORY ACTION ON KRAS OVER HRAS AND NRAS” (CHUGAI SEIYAKU KABUSHIKI KAISHA, priority 2021, published 2024).
Like-named read-outs stand apart in the source and are kept apart here. *1 amine or outer side, *2 acyl side, *3 side chain or, on linkers, in order; H or OH if unused. Where a SMILES comes first, the peptide text is derived from it. Bridges are numbered along the chain shown (N, C = ends). [ ]: non-standard residue; d: D form. The star is where a group is joined. hPhe(3-Cl-4-CF3) = N[C@@H](CCc1ccc(C(F)(F)F)c(Cl)c1)C(=O)O; NEtPhe(4-CF3) = CCN[C@@H](Cc1ccc(C(F)(F)F)cc1)C(=O)O; X28 = COCCCN([C@@H](Cc1ccc(C)cc1)C(=O)[*:2])[*:1]; X30 = C=CCCN([C@@H](Cc1ccc(C)cc1)C(=O)[*:2])[*:1]; hPhe(3,4-Cl2) = N[C@@H](CCc1ccc(Cl)c(Cl)c1)C(=O)O; NMeGly(cPent) = CN[C@H](C(=O)O)C1CCCC1; NMeAllylGly = C=CC[C@H](NC)C(=O)O; NMeD = CN[C@@H](CC(=O)O)C(=O)O; NMeL = CN[C@@H](CC(C)C)C(=O)O; Morpholide = C1CN(*)CCO1; Ac5c = NC1(C(=O)O)CCCC1; Sar = CNCC(=O)O

Key:
[1] = molecular target: GDP-bound HRAS wild-type protein (Homo sapiens, UniProt P01112); assay: Binding to HRAS by surface plasmon resonance (SPR), Single Cycle Kinetics; settings: for HRAS/KRAS (ratio of KD value for HRAS to KD value for KRAS) / HRAS/KRAS (ratio of KD value with respect to HRAS to KD value with respect to KRAS): SPR, GDP-bound HRAS wild-type protein vs GDP-bound KRAS wild-type protein
GDP-bound HRAS wild-type protein, sequence (P01112 whole entry): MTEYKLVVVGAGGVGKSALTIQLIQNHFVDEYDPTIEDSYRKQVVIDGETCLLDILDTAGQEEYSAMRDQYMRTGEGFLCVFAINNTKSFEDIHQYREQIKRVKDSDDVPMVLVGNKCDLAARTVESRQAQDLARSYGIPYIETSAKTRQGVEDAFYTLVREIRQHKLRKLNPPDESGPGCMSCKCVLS

[2] = molecular target: GDP-bound NRAS wild-type protein (Homo sapiens, UniProt P01111); assay: Binding to NRAS by surface plasmon resonance (SPR), Single Cycle Kinetics; settings: for NRAS/KRAS (ratio of KD value for NRAS to KD value for KRAS) / NRAS/KRAS (ratio of KD value with respect to NRAS to KD value with respect to KRAS): SPR, GDP-bound NRAS wild-type protein vs GDP-bound KRAS wild-type protein
GDP-bound NRAS wild-type protein, sequence (P01111 whole entry): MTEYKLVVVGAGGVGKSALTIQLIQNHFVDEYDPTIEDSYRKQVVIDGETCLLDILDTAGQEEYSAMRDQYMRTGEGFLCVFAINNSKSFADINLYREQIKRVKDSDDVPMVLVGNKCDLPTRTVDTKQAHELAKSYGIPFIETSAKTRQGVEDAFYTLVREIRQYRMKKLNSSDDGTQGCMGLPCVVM

[3] = molecular target: GDP-bound KRAS wild-type protein (Homo sapiens, UniProt P01116); assay: Binding to KRAS by surface plasmon resonance (SPR), Single Cycle Kinetics; settings: GDP-bound KRAS wild-type protein, read-out: KRAS KD
GDP-bound KRAS wild-type protein, sequence (P01116 whole entry): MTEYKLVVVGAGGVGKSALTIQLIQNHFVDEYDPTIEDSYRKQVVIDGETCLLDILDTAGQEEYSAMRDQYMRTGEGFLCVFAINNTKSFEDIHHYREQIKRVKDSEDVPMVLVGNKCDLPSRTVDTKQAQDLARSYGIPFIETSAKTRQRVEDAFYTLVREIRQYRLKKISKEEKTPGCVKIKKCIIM

[4] = SPR Single Cycle Kinetics, 1:1 binding model
[5] = SPR, Single Cycle Kinetics, 1:1 binding model

| SMILES | HRAS/KRAS (ratio of KD value for HRAS to KD value for KRAS) [1] | NRAS/KRAS (ratio of KD value for NRAS to KD value for KRAS) [2] | Kd ([3]; SPR, Single Cycle Kinetics) | Kd [3, 4] | further results |
| --- | --- | --- | --- | --- | --- |
| CC[C@H](C)[C@@H]1NC(=O)[C@H](CC(C)C)N(C)C(=O)C[C@@H](C(=O)N2CCOCC2)N(C)C(=O)[C@H](C2CCCC2)N(C)C(=O)C2(CCC2)NC(=O)[C@@H]2C[C@@H](C(F)(F)F)CN2C(=O)[C@H](CCc2cc(F)c(C(F)(F)F)c(F)c2)NC(=O)CN(C)C(=O)[C@H](Cc2ccc(C(F)(F)F)cc2)N2CCCCC[C@@H](C2=O)N(C)C(=O)CN(C)C1=O [PP0818] | B (a compound having 3 or more and less than 10 is denoted as B) | B (a compound having 3 or more and less than 10 is denoted as B) | 1700 pM | – | – |
| C=CCCN1C(=O)[C@H](CC=C)N(C)C(=O)CN(C)C(=O)[C@H]([C@@H](C)CC)NC(=O)[C@H](CC(C)C)N(C)C(=O)C[C@@H](C(=O)N2CCOCC2)N(C)C(=O)[C@H](C2CCCC2)N(C)C(=O)C2(CCCC2)NC(=O)[C@@H]2CCCN2C(=O)[C@H](CCc2ccc(C(F)(F)F)c(Cl)c2)NC(=O)CN(C)C(=O)[C@@H]1Cc1ccc(C)cc1 [PP0140] ([NMeL]I[Sar][NMeAllylGly][X30][Sar][hPhe(3-Cl-4-CF3)]P[Ac5c][NMeGly(cPent)][NMeD]-Morpholide; lactam N-11) | B (a compound having 3 or more and less than 10 is denoted as B) | C (A compound having a KD ratio of 0.1 or more and less than 3 is denoted as C) | – | 800000 pM | – |
| CC[C@H](C)[C@@H]1NC(=O)[C@H](CC(C)C)N(C)C(=O)C[C@@H](C(=O)N2CCOCC2)N(C)C(=O)[C@H](C2CCCC2)N(C)C(=O)C2(CCCC2)NC(=O)[C@@H]2CCCN2C(=O)[C@H](CCc2ccc(C(F)(F)F)c(Cl)c2)NC(=O)CN(C)C(=O)[C@H](Cc2ccc(C)cc2)N(CCCOC)C(=O)CN(C)C(=O)CN(C)C1=O [PP0105] ([NMeL]I[Sar][Sar][X28][Sar][hPhe(3-Cl-4-CF3)]P[Ac5c][NMeGly(cPent)][NMeD]-Morpholide; lactam N-11) | C (A compound having a KD ratio of 0.1 or more and less than 3 is denoted as C) | B (a compound having 3 or more and less than 10 is denoted as B) | – | 140 pM | – |
| CCO[C@@H]1C[C@H]2C(=O)NC3(CCC3)C(=O)N(C)[C@@H](C3CCCC3)C(=O)N(C)[C@H](C(=O)N(C)C)CC(=O)N(C)[C@@H](CC)C(=O)N[C@@H]([C@@H](C)CC)C(=O)N(C)CC(=O)N(C)[C@H]3CCCCN(C3=O)[C@@H](Cc3ccc(C(F)(F)F)cc3)C(=O)N(C)CC(=O)N[C@@H](CCc3ccc(C(F)(F)F)cc3F)C(=O)N2C1 [PP0885] | B (a compound having 3 or more and less than 10 is denoted as B) | C (A compound having a KD ratio of 0.1 or more and less than 3 is denoted as C) | 98 pM | – | – |
| CCO[C@@H]1C[C@H]2C(=O)NC3(CCC3)C(=O)N(C)[C@@H](C3CCCC3)C(=O)N(C)[C@H](C(=O)N3CCOCC3)CC(=O)N(C)[C@@H](CC)C(=O)N[C@@H]([C@@H](C)CC)C(=O)N(C)CC(=O)N(C)[C@H]3CCCCN(C3=O)[C@@H](Cc3ccc(C(F)(F)F)cc3)C(=O)N(C)CC(=O)N[C@@H](CCc3cc(F)c(C(F)(F)F)c(F)c3)C(=O)N2C1 [PP0708] | – | – | – | 26 pM | HRAS/KRAS (ratio of KD value with respect to HRAS to KD value with respect to KRAS) [1]: B (a compound having 3 or more and less than 10 is denoted as B); NRAS/KRAS (ratio of KD value with respect to NRAS to KD value with respect to KRAS) [2]: B (a compound having 3 or more and less than 10 is denoted as B) |
| CC[C@H](C)[C@@H]1NC(=O)[C@H](CC)N(C)C(=O)C[C@@H](C(=O)N(C)C)N(C)C(=O)[C@H](C2CCCC2)N(C)C(=O)C2(CCC2)NC(=O)[C@@H]2CCCCN2C(=O)[C@H](CCc2cc(F)c(C(F)(F)F)c(F)c2)NC(=O)CN(C)C(=O)[C@H](Cc2ccc(C(F)(F)F)cc2)N2CCCC[C@@H](C2=O)N(C)C(=O)CN(C)C1=O [PP0658] | – | – | – | 34 pM | HRAS/KRAS (ratio of KD value with respect to HRAS to KD value with respect to KRAS) [1]: B (a compound having 3 or more and less than 10 is denoted as B); NRAS/KRAS (ratio of KD value with respect to NRAS to KD value with respect to KRAS) [2]: C (A compound having a KD ratio of 0.1 or more and less than 3 is denoted as C) |
| CCCOC[C@H]1C(=O)N[C@@H]([C@@H](C)CC)C(=O)N(C2CC2)CC(=O)N(C)[C@H]2C/C=C\CCN(C2=O)[C@@H](Cc2ccc(C)cc2)C(=O)N(C)CC(=O)N[C@@H](CCc2ccc(C(F)(F)F)c(OC)c2)C(=O)N2C[C@H](OCC)C[C@H]2C(=O)N(C)C2(CCC2)C(=O)N(C)[C@@H](C(CC)CC)C(=O)N(C)[C@H](C(=O)N(C)C)CC(=O)N1C [PP2327] | A (a compound having 10 or more and less than 20 is denoted as A) | A (a compound having 10 or more and less than 20 is denoted as A) | 500 pM | – | – |
| CC[C@H](C)[C@@H]1NC(=O)[C@H](CC(C)C)N(C)C(=O)C[C@@H](C(=O)N2CCOCC2)N(C)C(=O)[C@H](C2CCCC2)N(C)C(=O)C2(CCCC2)NC(=O)[C@@H]2CCCN2C(=O)[C@H](CCc2ccc(Cl)c(Cl)c2)NC(=O)CN(C)C(=O)[C@H](Cc2ccc(C(F)(F)F)cc2)N(CC)C(=O)CN(C)C(=O)CN(C)C1=O [PP0237] ([NMeL]I[Sar][Sar][NEtPhe(4-CF3)][Sar][hPhe(3,4-Cl2)]P[Ac5c][NMeGly(cPent)][NMeD]-Morpholide; lactam N-11) | C (A compound having a KD ratio of 0.1 or more and less than 3 is denoted as C) | B (a compound having 3 or more and less than 10 is denoted as B) | – | 280 pM | – |
| CCO[C@@H]1C[C@H]2C(=O)NC3(CCC3)C(=O)N(C)[C@@H](C3CCCC3)C(=O)N(C)[C@H](C(=O)N(C)C)CC(=O)N(C)[C@@H](CC3CCCC3)C(=O)N[C@@H]([C@@H](C)CC)C(=O)N(C)CC(=O)N(C)[C@H]3C/C=C\CCN(C3=O)[C@@H](Cc3ccc(C)cc3)C(=O)N(C)CC(=O)N[C@@H](CCc3cc(F)c(CC)c(OC)c3)C(=O)N2C1 [PP2674] | – | – | – | 500 pM | HRAS/KRAS (ratio of KD value with respect to GDP-bound HRAS wild-type protein to KD value with respect to KRAS) ([1]; SPR KD ratio HRAS/KRAS, class symbols): A (a compound having 10 or more and less than 20 is denoted as A); NRAS/KRAS (ratio of KD value with respect to GDP-bound NRAS wild-type protein to KD value with respect to KRAS) ([2]; SPR KD ratio NRAS/KRAS, class symbols): A (a compound having 10 or more and less than 20 is denoted as A) |
| CCO[C@@H]1C[C@H]2C(=O)NC3(CCC3)C(=O)N(C)[C@@H](C3CCCC3)C(=O)N(C)[C@H](C(=O)N(CC)CC)CC(=O)N(C)[C@@H](CC)C(=O)N[C@@H]([C@@H](C)CC)C(=O)N(C)CC(=O)N(C)[C@H]3C/C=C\CCN(C3=O)[C@@H](Cc3ccc(C(F)(F)F)cc3)C(=O)N(C)CC(=O)N[C@@H](CCc3cc(F)c(C(F)(F)F)c(F)c3)C(=O)N2C1 [PP1305, (2S,8S,12R,14S,20S,23S,27S,30S,36S,38Z)-20-cyclopentyl-8-[2-[3,5-difluoro-4-(trifluoromethyl)phenyl]ethyl]-12-ethoxy-N,N,27-triethyl-4,19,22,26,32,35-hexamethyl-30-[(1S)-1-methylpropyl]-3,6,9,15,18,21,25,28,31,34,42-undecaoxo-2-[[4-(trifluoromethyl)phenyl]methyl]spiro[1,4,7,10,16,19,22,26,29,32,35-undecazatricyclo[34.5.1.0^10,14]dotetracont-38-ene-17,1′-cyclobutane]-23-carboxamide] | – | – | – | – | HRAS/KRAS (ratio of KD value for HRAS to KD value for KRAS) ([1]; KD ratio class): A (a compound having 10 or more and less than 20 is denoted as A); NRAS/KRAS (ratio of KD value for NRAS to KD value for KRAS) ([2]; KD ratio class): AA (a compound having 20 or more is denoted as AA); Kd [3, 5]: 120 pM |
| CCO[C@@H]1C[C@H]2C(=O)NC3(CCCC3)C(=O)N(C)[C@@H](C3CCCC3)C(=O)N(C)[C@H](C(=O)N3CCOCC3)CC(=O)N(C)[C@@H](COC)C(=O)N[C@@H]([C@@H](C)CC)C(=O)N(C)CC(=O)N(C)[C@H]3CCCCCN(C3=O)[C@@H](Cc3ccc(C(F)(F)F)cc3)C(=O)N(C)CC(=O)N[C@@H](CCc3cc(F)c(C(F)(F)F)c(F)c3)C(=O)N2C1 [PP0841] | B (a compound having 3 or more and less than 10 is denoted as B) | B (a compound having 3 or more and less than 10 is denoted as B) | 730 pM | – | – |
| CCO[C@@H]1C[C@H]2C(=O)NC3(CCC3)C(=O)N(C)[C@@H](C3CCCC3)C(=O)N(C)[C@H](C(=O)N(CC)CC)CC(=O)N(C)[C@@H](CC(C)C)C(=O)N[C@@H]([C@@H](C)CC)C(=O)N(C)CC(=O)N(C)[C@H]3C/C=C\CCN(C3=O)[C@@H](Cc3ccc(C(F)(F)F)cc3)C(=O)N(C)CC(=O)N[C@@H](CCc3cc(F)c(C(F)(F)F)c(F)c3)C(=O)N2C1 [PP1306] | – | – | – | – | HRAS/KRAS (ratio of KD value for HRAS to KD value for KRAS) ([1]; KD ratio class): A (a compound having 10 or more and less than 20 is denoted as A); NRAS/KRAS (ratio of KD value for NRAS to KD value for KRAS) ([2]; KD ratio class): AA (a compound having 20 or more is denoted as AA); Kd [3, 5]: 200 pM |
